According to paper PMC7351026, “Serum Half-Lives for Short- and Long-Chain Perfluoroalkyl Acids after Ceasing Exposure from Drinking Water Contaminated by Firefighting Foam” (Environmental Health Perspectives, 2020):
Where “and” joins values, the source holds several entries; their conditions need not be identical. Identical values can stand only once. Marks after values point to notes of the source that are not given here.

Key:
[1] = Individual serum elimination rate and half-life (linear regression per employee); settings: individual estimate;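 as to HL (half-life): half-life in years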
Method: Serum PFAS concentrations were log-transformed. Time was calculated as the elapsed days between supply of clean bottled water and […] blood sampling. We assumed one compartment, first-order elimination kinetics. In this kinetic model, the body is considered as one homogeneous volume in which mixing is instantaneous and from which PFAS could be absorbed, transferred, and eliminated according to the rate of elimination that is proportional to the concentration of PFAS in the body. Two methods were used to estimate serum elimination rate constant (k) and half-life for each PFAS:
Method 2: For estimation of individual k, linear regression was used to derive the slope ( β ) of the logarithm of serum concentrations vs. time for each employee. The negative value of the slope ( −β ) for each individual was equivalent to the individual k, and individual serum elimination half-life was calculated as ln2/k for each PFAS. If β was positive (i.e., PFAS concentrations tended to increase over the five samplings), the half-life was not calculated.

[2] = PFAS levels in serum samples of airport employees (LC/MS/MS)
Excerpt: All 26 employees at the airport were invited for a blood sampling between 11 and 14 September 2018 (i.e., within 11 to 14 d after the termination of contaminated drinking-water exposure). Information on age, home address, employment history, working tasks, and sick leave and vacation days in August and September were collected by questionnaire. In addition, data on the number of glasses of water consumed per day, local fish consumption, and history of blood donation and medication were collected. For female employees, questions about menstruation, pregnancy, and duration of breast-feeding were asked.
The PFAS analysis in serum from the first sampling was immediately performed and personal results were reported to the employees. […] These 17 employees submitted four rounds of blood and first morning urine samples in parallel, at 1-month intervals. In total, there were five rounds of serum sampling (started from September) and four rounds of urine sampling (from October). For modeling of elimination, all samples were reanalyzed in a single batch. We obtained 83 serum samples with a median count of 5 (range: 4–5) samples per employee, and 59 urine samples with median of 4 (range: 1–4) samples per employee. Only one employee provided a single urine sample. The study was approved by the Regional Ethical Review Board in Lund, Sweden. All employees provided written informed consent.
Venous whole blood samples were obtained and were centrifuged for 10 min at 1,500×g at room temperature to isolate the serum on site. The serum samples were collected in 6-mL BD Vacutainer® Plus plastic serum tubes without gel (BD). Urine samples were collected in 13-mL polypropylene screw cap tubes (Sarstedt). Serum and urine samples were frozen at −20°C after sampling and transported to Lund using cold chain logistics. Serum and urine samples were stored at −80°C and −20°C , respectively, before analysis.
The serum samples, QC samples, and chemical blanks were prepared in 96-well plates with 1.5-mL flat-bottom glass vials (Biotech solutions). Serum samples were thawed for 1–2 h and mixed on a vortex shaker for approximately 10 s two times. Once after all samples were thawed and a second time before pipetting the serum to the plate. Before pipetting, the tip was pre-wetted several times, drawing a volume into the tip and dispensing it back into the tube. Sample preparation procedures for serum samples consisted of 25μL serum mixed with 25μL water, 25μL methanol, 25μL isotopically labeled internal standards in 50% acetonitrile (see Table S1), and 100μL acetonitrile. Thereafter, samples were mixed vigorous by shaking for 30 min and centrifuged at 2,600×g for 10 min at room temperature. The supernatant ( 0.2mL ) was transferred to 96-well plates with 0.5-mL conical glass vials (MicroLiter Analytical Supplies) and again centrifuged at 3,000×g for 10 min before analysis. The QC samples and chemical blanks were prepared following the same procedure as the serum samples. The calibration standards were prepared in FBS the same way as the samples, except for the addition of diluted reference standards of all analyzed compounds in 25μL of the methanol solution.
Aliquots of 4μL of the sample were analyzed using LC/MS/MS. For the analysis, a C18 column ( 4μm , 2.1mm i.d.×50mm , Genesis Lightning) was used prior to the injector to filter the mobile phases. The analytical column was an Aquity BEH ( 1.7μm , 2.1mm i.d.×100mm Waters). The mobile phases (A and B) were A: 5 mM ammonium acetate in water:methanol (50:50); and B: methanol. The mobile phase was kept at 0% B for 2.5 min after injection. A gradient was then applied over 11 min to 90% B, where it was then kept for 1.5 min. The column was then conditioned at 0% B for 2 min.

[3] = 1st sampling (September 2018), count 17
[4] = 2nd sampling (October 2018), count 17
[5] = 3rd sampling (November, 2018), count 17
[6] = 4th sampling (December 2018), count 16
[7] = 5th sampling (January 2019), count 16
[8] = first serum samples, all 26 airport employees
[9] = median of first serum samples, all 26 airport employees

## O=S(=O)(O)C(F)(F)C(F)(F)C(F)(F)C(F)(F)F [PFBS, perfluorobutane sulfonic acid]
[1]; subject 1, 5 samples
  Elimination rate: 3.2 yearly
  HL (half-life): 0.2 year
[1]; subject 2, 5 samples
  Elimination rate: 4.0 yearly
  HL (half-life): 0.2 year
[1]; subject 3, 5 samples
  Elimination rate: 5.1 yearly
  HL (half-life): 0.1 year
[1]; subject 4, 5 samples
  Elimination rate: 3.1 yearly
  HL (half-life): 0.2 year
[1]; subject 5, 5 samples
  Elimination rate: 3.0 yearly
  HL (half-life): 0.2 year
[1]; subject 6, 4 samples
  Elimination rate: 2.9 yearly
  HL (half-life): 0.2 year
[1]; subject 7, 5 samples
  Elimination rate: 6.2 yearly
  HL (half-life): 0.1 year
[1]; subject 8, 5 samples
  Elimination rate: 4.4 yearly
  HL (half-life): 0.2 year
[1]; subject 9, 5 samples
  Elimination rate: 11.7 yearly
  HL (half-life): 0.1 year
[1]; subject 10, 5 samples
  Elimination rate: 3.8 yearly
  HL (half-life): 0.2 year
[1]; subject 11, 5 samples
  Elimination rate: 7.1 yearly
  HL (half-life): 0.1 year
[1]; subject 12, 5 samples
  Elimination rate: 5.4 yearly
  HL (half-life): 0.1 year
[1]; subject 13, 5 samples
  Elimination rate: 6.2 yearly
  HL (half-life): 0.1 year
[1]; subject 14, 4 samples
  Elimination rate: 10.7 yearly
  HL (half-life): 0.1 year
[1]; subject 15, 5 samples
  Elimination rate: 5.7 yearly
  HL (half-life): 0.1 year
[1]; subject 16, 5 samples
  Elimination rate: 3.6 yearly
  HL (half-life): 0.2 year
[1]; subject 17, 5 samples
  Elimination rate: 10.4 yearly
  HL (half-life): 0.1 year
[2]; [3]
  Serum PFAS level, 25 percentile: 0.32
  Serum PFAS level, 75 percentile: 0.68
  Serum PFAS level, Max: 1.3
  Serum PFAS level, Median: 0.46
  Serum PFAS level, Min: 0.22
[2]; [4]
  Serum PFAS level, 25 percentile: 0.11
  Serum PFAS level, 75 percentile: 0.31
  Serum PFAS level, Max: 0.70
  Serum PFAS level, Median: 0.17
  Serum PFAS level, Min: < LOD
[2]; [5]
  Serum PFAS level, 25 percentile: < LOD
  Serum PFAS level, 75 percentile: 0.28
  Serum PFAS level, Max: 0.65
  Serum PFAS level, Median: 0.09
  Serum PFAS level, Min: < LOD
[2]; [6]
  Serum PFAS level, 25 percentile: < LOD
  Serum PFAS level, 75 percentile: 0.24
  Serum PFAS level, Max: 0.52
  Serum PFAS level, Median: 0.08
  Serum PFAS level, Min: < LOD
[2]; [7]
  Serum PFAS level, 25 percentile: < LOD
  Serum PFAS level, 75 percentile: 0.11
  Serum PFAS level, Max: 0.30
  Serum PFAS level, Median: 0.06
  Serum PFAS level, Min: < LOD
[2]; all 26 airport employees
  Serum level in the first samples, median (range): 0.33 ( <LOD –1.3) ng/mL
[2]; employees participated in first blood sampling and repeated blood and urine sampling, N=17
  PFAS in first serum sample, median (range): 0.46 ng/mL and 0.46 (0.22–1.3) ng/mL
[2]; employees participated in first blood sampling only, N=9, 11-14 d after end of exposure
  PFAS in first serum sample, median (range): 0.10 ( <LOD –1.0)^d ng/mL
[2]; females (N=7)
  Initial serum PFAS level, max: 1.3 ng/mL
  Initial serum PFAS level, median: 0.39 ng/mL
  Initial serum PFAS level, min: 0.06 ng/mL
[2]; [8]
  Relative composition of PFAS in serum, molar concentration basis: 0.4%
  Relative composition of PFAS in serum, weight basis: 0.3%
[2]; males (N=19)
  Initial serum PFAS level, Max: 1.1 ng/mL
  Initial serum PFAS level, Min: < LOD
  Initial serum PFAS level, median: 0.32 ng/mL
[2]; [9]
  Serum concentration, molar basis: 0.0011
  Serum concentration, weight basis: 0.33
